The values that follow come from US20220120732A1, “TREATMENT OF DISEASES WITH MULTIMERIC PEPTIDES” (Ramot at Tel-Aviv University Ltd., priority 2019, published 2022).

Bridges are numbered along the chain shown (N, C = ends). Roman numbers before positions name the chains, in order. Where no end group is shown, it is not given here.

In the data set the test system is normal stroma cells. Description: Cell density, patient-derived stromal cells with autologous PBMC and C24D. Type of data set: cell-based, human. Particulars: autologous PBMCs + C24D; FIGS. 5A-B. From the text: Patient-derived tumor primary culture medium: Medium D: DMEM/F12 (1:1, v/v) supplemented with 10% FBS and 1% antibiotics/antimycotic (100×. Medium M: Medium 171 supplemented with 1% MEGS (100×), and 1% antibiotics/antimycotics. Medium DB: mixed from medium D and medium M (1:1, v/v).
Tumor biopsies, all from different patients, were collected after obtaining the patients' consent and were transported to the laboratory. Excess adipose tissue was pared off the tumor samples, following which the samples were sliced into small fragments (approximately 1-2 mm^2) by using a scalpel. The fragments were seeded per 10 cm^2 Petri dishes in DB medium. The Petri dishes were incubated at 37° C. with 5% CO2 and monitored daily to record the time of cell appearance and the cell morphology. The medium was replaced every 3 days. Approximately two weeks after primary culture incubation, cells were trypsinized and cultured in Petri dishes according to the below protocol.
Day 1: 4×10^5 tumor cells from the cell line or tumor and stroma cells derived from patient's biopsies were incubated in the respective growth medium in 6 well plates overnight or Petri dishes. Day 2: 3 hours prior to addition of PBMC of healthy female donors or from autologous patients, DMEM medium was changed to RPMI medium. […]

For “I: CGHHLLRPRRRKRPHSIPTPILIFRSP / II: CGHHLLRPRRRKRPHSIPTPILIFRSP (disulfide I:1-II:1) [C24D]”, the “effect on normal stroma cells of the same patient” value is “no effect”.
